Reference: US8889878B2, “Haloalky-substituted amides as insecticides and acaricides” (Bayer CropScience AG, priority 2009, dated 2014)

Columns and labels:
[1] = test system: mustard beetle (Phaedon cochleariae); assay: Phaedon test (PHAECO spray treatment), Example 7; format: in vivo; conditions: application rate 20 g/ha, china cabbage leaf discs sprayed, after 7 days
Description: Phaedon Test (PHAECO Spray Treatment)
(§1) • Solvent: 78.0 parts by weight of acetone • 1.5 parts by weight of dimethylformamide • Emulsifier: 0.5 part by weight of alkylaryl polyglycol ether
To prepare an active ingredient formulation, 1 part by weight of active ingredient is mixed with the stated amounts of solvent and emulsifier, and the concentrate is diluted with emulsifier-containing water to the desired concentration. Leaf discs from china cabbage (Brassica pekinensis) are sprayed with an active ingredient formulation of the desired concentration and, after drying, populated with larvae of the mustard beetle (Phaedon cochleariae).
After 7 days, the efficacy in % is determined. 100% means that all beetle larvae were killed; 0% means that no beetle larvae were killed.

[2] = logP by HPLC on reverse-phase column (EEC Directive 79/831 Annex V.A8); format: physicochemical; conditions: HPLC-MS
Description: The logP values reported in the above Tables and Preparation Examples were determined according to EEC Directive 79/831 Annex V.A8 by HPLC (High Performance Liquid Chromatography) on a reverse-phase column (C18). Temperature 43° C.

[3] = test system: red spider mite (Tetranychus urticae); assay: Tetranychus test, OP-resistant (TETRUR spray treatment), Example 8; format: in vivo; conditions: application rate 20 g/ha, common bean leaf discs sprayed, after 6 days
Description: Tetranychus Test, OP-resistant (TETRUR Spray Treatment)
as §1
To prepare an active ingredient formulation, 1 part by weight of active ingredient is mixed with the stated amounts of solvent and emulsifier, and the concentrate is diluted with emulsifier-containing water to the desired concentration.
Leaf discs from the common bean (Phaseolus vulgaris) infested by all stages of the red spider mite (Tetranychus urticae) are sprayed with an active ingredient formulation of the desired concentration.
After 6 days, the efficacy in % is determined. 100% means that all spider mites were killed; 0% means that no spider mites were killed.

[4] = test system: green peach aphid (Myzus persicae); assay: Myzus test (MYZUPE spray treatment), Example 17; format: in vivo; conditions: china cabbage leaf discs sprayed, after 6 days
Description: Myzus Test (MYZUPE Spray Treatment)
• Solvent: 78 parts by weight of acetone • 1.5 parts by weight of dimethylformamide • Emulsifier: 0.5 part by weight of alkylaryl polyglycol ether
To prepare an appropriate active ingredient formulation, 1 part by weight of active ingredient is mixed with the stated amounts of solvent and emulsifier, and the concentrate is diluted with emulsifier-containing water to the desired concentration. Leaf discs from china cabbage (Brassica pekinensis) infested by all stages of the green peach aphid (Myzus persicae) are sprayed with an active ingredient formulation of the desired concentration.
After 6 days, the efficacy in % is determined. 100% means that all aphids were killed; 0% means that no aphids were killed.

[5] = test system: Boophilus microplus; assay: Boophilus microplus test (BOOPMI injection), Example 11; format: in vivo; conditions: application rate 20 μg/animal, injected into abdomen, after 7 days
Description: Boophilus microplus Test (BOOPMI Injection) • Solvent: dimethyl sulphoxide To prepare an appropriate active ingredient formulation, 10 mg of active ingredient are mixed with 0.5 ml of solvent and the concentrate is diluted with solvent to the desired concentration. The active ingredient solution is injected into the abdomen (Boophilus microplus), and the animals are transferred to dishes and stored in a climate-controlled room. The efficacy was assessed by the number of fertile eggs laid. After 7 days, the efficacy in % is determined. 100% means that none of the ticks has laid any fertile eggs.

[6] = test system: armyworm (Spodoptera frugiperda); assay: Spodoptera frugiperda test (SPODFR spray treatment), Example 15; format: in vivo; conditions: application rate 100 g/ha, maize leaf discs sprayed, after 7 days
In short: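 Maize leaf discs sprayed with active ingredient in acetone/DMF with alkylaryl polyglycol ether emulsifier, diluted in water, then populated with caterpillars after drying. Efficacy in % after 7 days: 100% all caterpillars killed, 0% none.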

Compound | efficacy in % [1] | logP [2] | efficacy in % [3] | efficacy in % ([4]; application rate 100 g/ha) | efficacy in % (fertile eggs laid) [5] | efficacy in % ([4]; application rate 500 g/ha) | efficacy in % [6]
COC(CNC(=O)c1ccc(/C=C/C(=O)NC(c2cccc(C(F)(F)F)c2)C(F)(F)F)cc1C(F)(F)F)OC (stereo not shown) [Ia-51] | 100% | HPLC-MS: logP = 3.18; mass | 90% |  |  |  | 
O=C(/C=C/c1ccc(C(=O)NC2CCOC2=O)c(C(F)(F)F)c1)NC(c1cccc(C(F)(F)F)c1)C(F)(F)F (stereo not shown) [Ia-136] |  |  |  | 100% | 100% |  | 
O=C(/C=C/c1ccc(C(=O)NCc2ccccn2)c(Cl)c1)NC(c1cccc(C(F)(F)F)c1)C(F)(F)F (stereo not shown) [Ia-21] | 100% | HPLC-MS: logP = 2.75; mass |  |  | 100% | 100% | 
COCC(C)NC(=O)c1ccc(/C=C/C(=O)NC(c2cccc(C(F)(F)F)c2)C(F)(F)F)cc1Cl (stereo not shown) [Ia-164] |  | HPLC-MS: logP = 3.33; mass |  | 100% | 100% |  | 
O=C(/C=C/c1ccc(C(=O)NCc2ccccn2)c(C(F)(F)F)c1)NC(c1cccc(C(F)(F)F)c1)C(F)(F)F (stereo not shown) [Ia-36] |  | HPLC-MS: logP = 2.75; mass | 100% |  | 100% |  | 
CC(C)NC(=O)c1ccc(/C=C/C(=O)NC(c2cccc(C(F)(F)F)c2)C(F)(F)F)cc1Cl (stereo not shown) [Ia-150] |  | HPLC-MS: logP = 3.5; mass |  | 100% | 100% |  | 
C#CC(C)NC(=O)c1ccc(/C=C/C(=O)NC(c2cccc(C(F)(F)F)c2)C(F)(F)F)cc1C(F)(F)F (stereo not shown) [Ia-138] |  | HPLC-MS: logP = 3.58; mass |  | 80% | 100% |  | 100%
O=C(/C=C/c1ccc(C(=O)NCc2cccnc2)c(C(F)(F)F)c1)NC(c1cccc(C(F)(F)F)c1)C(F)(F)F (stereo not shown) [Ia-50] |  | HPLC-MS: logP = 2.23; mass | 100% |  |  |  | 
CN(C(=O)c1ccc(/C=C/C(=O)NC(c2cccc(C(F)(F)F)c2)C(F)(F)F)cc1Br)C1CC1 (stereo not shown) [Ia-95] | 100% | HPLC-MS: logP = 3.58 mass | 80% |  |  |  | 
O=C(/C=C/c1ccc(C(=O)Nc2ccc(F)cc2)c(C(F)(F)F)c1)NC(c1cccc(C(F)(F)F)c1)C(F)(F)F (stereo not shown) [Ia-48] | 100% | HPLC-MS: logP = 3.89; mass | 90% |  |  |  | 
O=C(/C=C/c1ccc(C(=O)NCC(F)F)c(Cl)c1)NC(c1cccc(C(F)(F)F)c1)C(F)(F)F (stereo not shown) [Ia-156] |  | HPLC-MS: logP = 3.34; mass |  | 100% | 100% |  | 100%
O=C(/C=C/c1ccc(C(=O)NCc2ncccn2)c(Cl)c1)NC(c1cccc(C(F)(F)F)c1)C(F)(F)F (stereo not shown) [Ia-153] |  | HPLC-MS: logP = 2.94; mass |  | 100% | 100% |  | 
O=C(/C=C/c1ccc(C(=O)NCc2ncccn2)c(C(F)(F)F)c1)NC(c1cccc(C(F)(F)F)c1)C(F)(F)F (stereo not shown) [Ia-127] |  | HPLC-MS: logP = 3.05; mass |  | 90% | 100% |  | 100%
O=C(/C=C/c1ccc(C(=O)NCc2ccc(F)cn2)c(Br)c1)NC(c1cccc(C(F)(F)F)c1)C(F)(F)F (stereo not shown) [Ia-90] | 100% | HPLC-MS: logP = 3.23 mass | 80% |  |  |  | 
CCOC1(NC(=O)c2ccc(/C=C/C(=O)NC(c3cccc(C(F)(F)F)c3)C(F)(F)F)cc2C(F)(F)F)CC1 (stereo not shown) [Ia-68] | 100% | HPLC-MS: logP = 3.52; mass | 100% |  |  |  | 
O=C(/C=C/c1ccc(C(=O)NCc2ccnc(Cl)c2)c(C(F)(F)F)c1)NC(c1cccc(C(F)(F)F)c1)C(F)(F)F (stereo not shown) [Ia-66] | 100% | HPLC-MS: logP = 3.41; mass | 90% |  |  |  | 
Cc1cc(/C=C/C(=O)NC(c2cccc(C(F)(F)F)c2)C(F)(F)F)ccc1C(=O)Nc1ccc(F)cc1 (stereo not shown) [Ia-99] | 100% | HPLC-MS: logP = 3.78 mass | 80% |  |  |  | 
O=C(/C=C/c1ccc(C(=O)NCc2ccncc2)c(C(F)(F)F)c1)NC(c1cccc(C(F)(F)F)c1)C(F)(F)F (stereo not shown) [Ia-49] |  | HPLC-MS: logP = 2; mass | 90% |  |  |  | 
O=C(/C=C/c1ccc(C(=O)Nc2ccncc2)c(Cl)c1)NC(c1cccc(C(F)(F)F)c1)C(F)(F)F (stereo not shown) [Ia-113] | 100% | HPLC-MS: logP = 1.92 mass | 100% |  |  |  | 
O=C(/C=C/c1ccc(C(=O)Nc2ccccn2)c(Br)c1)NC(c1cccc(C(F)(F)F)c1)C(F)(F)F (stereo not shown) [Ia-92] | 100% | HPLC-MS: logP = 3.47 mass | 80% |  |  |  | 
O=C(/C=C/c1ccc(C(=O)NCC2CCCO2)c(C(F)(F)F)c1)NC(c1cccc(C(F)(F)F)c1)C(F)(F)F (stereo not shown) [Ia-52] |  | HPLC-MS: logP = 3.27; mass | 100% |  |  |  | 
CC(NC(=O)c1ccc(/C=C/C(=O)NC(c2cccc(C(F)(F)F)c2)C(F)(F)F)cc1Cl)c1ccccn1 (stereo not shown) [Ia-154] |  | HPLC-MS: logP = 3.45; mass |  | 90% | 100% |  | 
O=C(/C=C/c1ccc(C(=O)N(C2CCOCC2)C2CC2)c(C(F)(F)F)c1)NC(c1cccc(C(F)(F)F)c1)C(F)(F)F (stereo not shown) [Ia-67] | 100% | HPLC-MS: logP = 3.77; mass |  |  |  | 90% | 
CC(NC(=O)c1ccc(/C=C/C(=O)NC(c2cccc(C(F)(F)F)c2)C(F)(F)F)cc1Br)C1CC1 (stereo not shown) [Ia-93] | 100% | HPLC-MS: logP = 3.42 mass | 90% |  |  |  | 
O=C(/C=C/c1ccc(C(=O)NC2CC2F)c(C(F)(F)F)c1)NC(c1cccc(C(F)(F)F)c1)C(F)(F)F (stereo not shown) [Ia-65] | 100% | HPLC-MS: logP = 3.33; mass | 90% |  |  |  | 
O=C(/C=C/c1ccc(C(=O)NC(CF)CF)c(C(F)(F)F)c1)NC(c1cccc(C(F)(F)F)c1)C(F)(F)F (stereo not shown) [Ia-143] |  | HPLC-MS: logP = 3.48; mass |  | 100% | 100% |  | 100%
O=C(/C=C/c1ccc(C(=O)NCc2ccccc2F)c(C(F)(F)F)c1)NC(c1cccc(C(F)(F)F)c1)C(F)(F)F (stereo not shown) [Ia-74] | 100% | HPLC-MS: logP = 3.77; mass | 90% |  |  |  | 
COC(=O)C(C)NC(=O)c1ccc(/C=C/C(=O)NC(c2cccc(C(F)(F)F)c2)C(F)(F)F)cc1C(F)(F)F (stereo not shown) [Ia-132] |  | HPLC-MS: logP = 3.47; mass |  | 80% | 100% |  | 
